# The source made the active and inactive calls.
# Assays:
# [1] = Luminescence-based cell-based high throughput dose response assay to identify activators of the DAF-12 from the parasite S. stercoralis (ssDAF-12).; assay type: functional
# Melanocortin receptor 4 = Melanocortin receptor 4 (Homo sapiens, UniProt P32245); assay type: functional, cell-based;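 note: Cell-based assay with luminescence read-out, confirmatory dose-response testing for agonist activity of biased ligands at MC4R; human U2OS cells with tagged receptor and beta-arrestin; potency of agonists that increase receptor coupling to beta-arrestin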
# Sequence of Melanocortin receptor 4 (P32245 whole entry): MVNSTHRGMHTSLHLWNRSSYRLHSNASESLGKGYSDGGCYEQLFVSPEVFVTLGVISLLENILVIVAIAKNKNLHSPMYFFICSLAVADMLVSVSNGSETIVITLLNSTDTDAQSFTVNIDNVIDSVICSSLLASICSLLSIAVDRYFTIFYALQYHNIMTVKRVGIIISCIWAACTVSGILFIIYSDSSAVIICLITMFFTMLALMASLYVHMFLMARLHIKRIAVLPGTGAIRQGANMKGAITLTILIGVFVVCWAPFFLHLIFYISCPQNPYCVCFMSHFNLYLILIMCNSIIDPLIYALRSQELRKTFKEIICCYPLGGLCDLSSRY
# [2] = T. cruzi growth inhibition in host cells, dose response, cell-based, plate reader, dry powder, set 2 (AID 652275); assay type: functional
# Galanin receptor type 3 = Galanin receptor type 3 (Homo sapiens, UniProt O60755); assay: Fluorescence-based cell-based primary high throughput dose response assay to identify antagonists of the Galanin Receptor 3 (GalR3).; assay type: functional
# Sequence of Galanin receptor type 3 (O60755 whole entry): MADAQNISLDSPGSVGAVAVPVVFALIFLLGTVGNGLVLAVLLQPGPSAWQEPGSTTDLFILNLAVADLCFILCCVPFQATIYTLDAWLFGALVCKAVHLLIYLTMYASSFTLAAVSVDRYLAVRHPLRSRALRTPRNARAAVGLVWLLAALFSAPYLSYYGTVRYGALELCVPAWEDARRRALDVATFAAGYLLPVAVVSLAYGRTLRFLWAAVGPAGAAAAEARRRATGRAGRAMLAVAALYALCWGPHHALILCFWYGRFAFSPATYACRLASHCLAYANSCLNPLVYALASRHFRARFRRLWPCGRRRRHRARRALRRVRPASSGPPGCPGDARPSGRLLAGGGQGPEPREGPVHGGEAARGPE
# Tumor necrosis factor = Tumor necrosis factor (Homo sapiens, UniProt P01375); assay: TNFa-triggered NF-kB activation inhibitors, SAR follow-up, cell-based, revised (AID 2337); assay type: functional
# Sequence of Tumor necrosis factor (P01375 whole entry): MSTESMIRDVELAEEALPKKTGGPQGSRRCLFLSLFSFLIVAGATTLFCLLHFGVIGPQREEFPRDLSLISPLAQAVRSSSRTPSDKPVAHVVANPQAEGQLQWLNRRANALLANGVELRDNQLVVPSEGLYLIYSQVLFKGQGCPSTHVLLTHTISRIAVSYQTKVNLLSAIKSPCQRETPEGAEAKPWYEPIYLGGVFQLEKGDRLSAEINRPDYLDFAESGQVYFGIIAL
# HEK293 [3] = assay: cells; settings: Homo sapiens
# INS1 = assay: beta cell apoptosis inhibitors, cytokine rescue, dose response, luminescence, retest (AID 449756); assay type: functional, cell-based; settings: Rattus norvegicus;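 note: cell death triggered by IL-1 beta plus TNF-alpha plus IFN-gamma mixture; protective hits raise ATP signal compared with cytokine alone wells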
# cells = assay type: functional, cell-based; settings: HEK-CNG
# [4] = molecular target: T1, Nucleotide-binding oligomerization domain-containing protein 1 (Homo sapiens, UniProt Q9Y239); assay: NOD1 signaling inhibitors, SAR follow-up, revised (AID 2333); assay type: functional
# T1 sequence (Q9Y239 whole entry): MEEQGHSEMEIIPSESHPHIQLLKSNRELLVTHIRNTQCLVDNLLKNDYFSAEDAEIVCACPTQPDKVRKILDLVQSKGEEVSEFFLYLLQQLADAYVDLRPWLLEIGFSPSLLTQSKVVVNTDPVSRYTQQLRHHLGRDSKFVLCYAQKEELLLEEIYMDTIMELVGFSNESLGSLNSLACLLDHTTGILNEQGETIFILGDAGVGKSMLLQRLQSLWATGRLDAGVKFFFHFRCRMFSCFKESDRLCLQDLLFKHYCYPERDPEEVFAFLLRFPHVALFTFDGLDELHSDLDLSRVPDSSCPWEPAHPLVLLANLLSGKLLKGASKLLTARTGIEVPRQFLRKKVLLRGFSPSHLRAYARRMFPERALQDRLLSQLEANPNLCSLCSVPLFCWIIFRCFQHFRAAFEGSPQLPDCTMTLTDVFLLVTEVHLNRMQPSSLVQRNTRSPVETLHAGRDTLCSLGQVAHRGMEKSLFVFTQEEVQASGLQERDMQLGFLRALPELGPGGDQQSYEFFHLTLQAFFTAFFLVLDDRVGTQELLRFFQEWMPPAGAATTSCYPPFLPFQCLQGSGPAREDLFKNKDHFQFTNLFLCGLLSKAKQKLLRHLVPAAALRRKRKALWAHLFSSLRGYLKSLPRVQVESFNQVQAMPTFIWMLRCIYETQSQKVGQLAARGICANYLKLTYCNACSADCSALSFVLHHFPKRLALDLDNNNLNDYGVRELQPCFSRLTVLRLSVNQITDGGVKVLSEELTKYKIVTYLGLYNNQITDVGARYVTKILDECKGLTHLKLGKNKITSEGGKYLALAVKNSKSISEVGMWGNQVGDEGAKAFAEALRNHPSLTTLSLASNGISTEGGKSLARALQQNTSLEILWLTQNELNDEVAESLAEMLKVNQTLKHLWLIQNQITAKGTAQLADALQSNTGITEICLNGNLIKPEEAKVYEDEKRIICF
# [5] = molecular target: T2, COUP transcription factor 2 (Homo sapiens, UniProt P24468); assay: Luminescence-based cell-based high throughput dose response assay to identify inhibitors of COUP-TFII (NR2F2).; assay type: functional;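 note: HEK293 cells transiently cotransfected with COUP-TFII expression vector and reporter; luciferase reporter luminescence driven by COUP-TFII from the pX2-168 reporter plasmid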
# T2 sequence (P24468 whole entry): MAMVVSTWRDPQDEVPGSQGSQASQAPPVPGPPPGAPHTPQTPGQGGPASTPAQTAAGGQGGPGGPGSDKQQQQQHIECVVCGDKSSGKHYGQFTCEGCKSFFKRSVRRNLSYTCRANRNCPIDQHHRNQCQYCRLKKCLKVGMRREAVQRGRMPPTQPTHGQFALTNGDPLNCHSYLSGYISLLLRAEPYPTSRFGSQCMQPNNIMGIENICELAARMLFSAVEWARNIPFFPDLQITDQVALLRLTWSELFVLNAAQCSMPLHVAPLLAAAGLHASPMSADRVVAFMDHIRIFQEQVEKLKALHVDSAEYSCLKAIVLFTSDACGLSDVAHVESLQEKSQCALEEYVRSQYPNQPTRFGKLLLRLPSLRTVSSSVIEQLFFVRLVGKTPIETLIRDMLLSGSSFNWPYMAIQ
# [6] = molecular target: Ras and Rab interactor 1/Tyrosine-protein kinase ABL1 (Homo sapiens, UniProt P00519+Q13671); assay type: functional;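 note: biochemical TR-FRET dose-response test measuring inhibition of binding between Rin1 and Abl proteins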
# Sequence of Ras and Rab interactor 1/Tyrosine-protein kinase ABL1 (P00519 whole entry): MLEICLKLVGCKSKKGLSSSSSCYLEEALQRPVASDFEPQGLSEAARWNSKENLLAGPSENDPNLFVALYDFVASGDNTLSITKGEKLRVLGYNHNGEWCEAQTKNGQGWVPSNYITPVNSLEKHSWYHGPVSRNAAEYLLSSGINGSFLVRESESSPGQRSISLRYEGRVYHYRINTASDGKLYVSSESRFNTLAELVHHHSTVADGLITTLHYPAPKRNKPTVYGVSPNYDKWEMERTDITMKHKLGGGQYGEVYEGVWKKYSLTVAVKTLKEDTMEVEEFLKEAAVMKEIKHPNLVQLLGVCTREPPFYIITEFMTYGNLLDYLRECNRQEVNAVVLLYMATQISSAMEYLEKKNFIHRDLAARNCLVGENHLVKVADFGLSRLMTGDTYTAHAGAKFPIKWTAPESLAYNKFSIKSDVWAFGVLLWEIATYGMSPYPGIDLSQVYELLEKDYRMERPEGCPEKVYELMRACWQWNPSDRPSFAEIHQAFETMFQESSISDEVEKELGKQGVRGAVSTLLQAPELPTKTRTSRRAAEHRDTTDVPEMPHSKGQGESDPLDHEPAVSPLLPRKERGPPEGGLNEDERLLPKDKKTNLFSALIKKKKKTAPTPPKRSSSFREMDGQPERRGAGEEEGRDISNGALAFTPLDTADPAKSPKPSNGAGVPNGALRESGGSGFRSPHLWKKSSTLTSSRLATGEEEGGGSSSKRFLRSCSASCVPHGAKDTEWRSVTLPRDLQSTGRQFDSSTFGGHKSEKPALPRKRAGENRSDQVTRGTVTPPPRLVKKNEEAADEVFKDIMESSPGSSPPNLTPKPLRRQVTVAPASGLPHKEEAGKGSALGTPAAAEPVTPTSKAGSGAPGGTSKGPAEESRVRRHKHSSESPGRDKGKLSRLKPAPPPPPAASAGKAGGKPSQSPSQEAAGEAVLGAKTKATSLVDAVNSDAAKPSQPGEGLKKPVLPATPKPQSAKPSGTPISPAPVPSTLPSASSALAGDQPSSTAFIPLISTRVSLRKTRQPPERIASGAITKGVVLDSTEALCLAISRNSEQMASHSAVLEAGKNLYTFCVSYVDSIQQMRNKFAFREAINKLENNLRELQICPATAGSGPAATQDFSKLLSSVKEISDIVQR
# Sequence of Ras and Rab interactor 1/Tyrosine-protein kinase ABL1 (Q13671 whole entry): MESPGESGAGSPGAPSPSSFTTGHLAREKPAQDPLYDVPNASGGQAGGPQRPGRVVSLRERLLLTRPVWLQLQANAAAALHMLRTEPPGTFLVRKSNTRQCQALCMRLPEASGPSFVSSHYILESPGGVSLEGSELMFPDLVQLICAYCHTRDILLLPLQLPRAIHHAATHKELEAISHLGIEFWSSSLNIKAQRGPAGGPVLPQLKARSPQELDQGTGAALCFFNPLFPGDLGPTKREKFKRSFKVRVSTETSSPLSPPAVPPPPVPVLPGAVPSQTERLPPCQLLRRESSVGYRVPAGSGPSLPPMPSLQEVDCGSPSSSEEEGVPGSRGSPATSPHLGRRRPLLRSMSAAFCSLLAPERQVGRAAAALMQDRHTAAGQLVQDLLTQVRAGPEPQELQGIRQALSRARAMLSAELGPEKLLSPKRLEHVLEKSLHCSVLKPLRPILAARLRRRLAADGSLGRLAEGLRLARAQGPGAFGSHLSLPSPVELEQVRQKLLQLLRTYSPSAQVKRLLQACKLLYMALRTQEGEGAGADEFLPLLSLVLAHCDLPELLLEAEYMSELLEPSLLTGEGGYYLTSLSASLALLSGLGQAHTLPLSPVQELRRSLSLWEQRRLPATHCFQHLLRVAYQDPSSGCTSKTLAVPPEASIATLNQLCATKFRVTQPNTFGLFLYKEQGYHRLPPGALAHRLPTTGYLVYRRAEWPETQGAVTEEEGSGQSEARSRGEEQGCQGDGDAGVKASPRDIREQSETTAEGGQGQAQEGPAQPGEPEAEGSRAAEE
# [7] = cytotoxicity in OVCAR8 ovarian cancer cells, dose response, PAX8 project, cell-based, plate reader, dry powder samples (AID 743197); assay type: functional; settings: OVCAR-8
# [8] = NIH:OVCAR-3 ovarian cancer cell cytotoxicity, dose response, PAX8 inhibitor project, plate reader, dry powder samples (AID 743044); assay type: functional, cell-based
# [9] = IGROV1 ovarian cancer cell cytotoxicity, dose response, PAX8 inhibitor project, plate reader, dry powder samples (AID 743043); assay type: functional, cell-based; settings: IGROV-1
# Paired box protein Pax-8 = Paired box protein Pax-8 (Homo sapiens, UniProt Q06710); assay: inhibitors of PAX8-driven TPO luciferase reporter, dose response, RMG-I cells, cherry-pick (AID 687027); assay type: functional, cell-based;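 note: luciferase reporter driven by Pax8 target thyroperoxidase promoter measured by SteadyGlo luminescence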
# Sequence of Paired box protein Pax-8 (Q06710 whole entry, the tested form may be a part): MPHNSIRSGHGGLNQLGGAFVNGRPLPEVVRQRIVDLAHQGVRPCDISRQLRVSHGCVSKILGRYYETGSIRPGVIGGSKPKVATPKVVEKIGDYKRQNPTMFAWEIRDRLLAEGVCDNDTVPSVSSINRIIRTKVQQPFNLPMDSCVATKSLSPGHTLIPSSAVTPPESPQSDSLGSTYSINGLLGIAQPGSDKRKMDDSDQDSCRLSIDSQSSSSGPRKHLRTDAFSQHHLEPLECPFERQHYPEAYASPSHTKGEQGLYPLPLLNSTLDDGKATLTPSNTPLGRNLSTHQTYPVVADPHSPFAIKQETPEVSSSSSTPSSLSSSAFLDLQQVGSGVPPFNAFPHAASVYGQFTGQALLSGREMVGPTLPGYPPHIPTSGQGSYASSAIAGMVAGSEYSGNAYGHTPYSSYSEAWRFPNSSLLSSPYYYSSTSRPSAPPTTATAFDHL
# [10] = molecular target: T3, Oxysterols receptor LXR-beta (Homo sapiens, UniProt P55055); assay type: functional, cell-based;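 note: agonist activity at LXR measured by a cell-based luminescence readout across a dose range, run as a counterscreen for daf-12 agonists; HEK293 cells with Gal4-LXR fusion and GAL4-driven luciferase reporter; potency for activation of Gal4-LXR reporter so compounds are agonists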
# T3 sequence (P55055 whole entry): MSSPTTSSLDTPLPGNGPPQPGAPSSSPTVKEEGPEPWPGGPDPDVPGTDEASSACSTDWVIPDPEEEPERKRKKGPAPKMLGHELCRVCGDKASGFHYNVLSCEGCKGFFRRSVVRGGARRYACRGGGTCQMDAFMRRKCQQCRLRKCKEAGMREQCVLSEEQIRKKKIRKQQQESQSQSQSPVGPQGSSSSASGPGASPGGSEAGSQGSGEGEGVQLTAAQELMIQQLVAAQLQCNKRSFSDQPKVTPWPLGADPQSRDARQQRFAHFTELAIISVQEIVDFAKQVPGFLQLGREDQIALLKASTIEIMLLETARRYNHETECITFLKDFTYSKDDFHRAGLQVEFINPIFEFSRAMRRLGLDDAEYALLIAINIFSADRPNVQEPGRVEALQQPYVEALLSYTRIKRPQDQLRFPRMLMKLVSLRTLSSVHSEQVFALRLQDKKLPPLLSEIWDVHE
# HEK293 [11] = assay: cells; assay type: functional, cell-based; settings: Homo sapiens
# [12] = molecular target: T4, Nuclear receptor subfamily 0 group B member 1 (Homo sapiens, UniProt P51843); assay: Luminescence-based cell-based high throughput dose response assay for inhibitors of the orphan nuclear receptor subfamily 0, group B, member 1 (DAX1; NR0B1). [Related pubchem assays (depositor defined):AID504766, AID504790]; assay type: functional
# T4 sequence (P51843 whole entry): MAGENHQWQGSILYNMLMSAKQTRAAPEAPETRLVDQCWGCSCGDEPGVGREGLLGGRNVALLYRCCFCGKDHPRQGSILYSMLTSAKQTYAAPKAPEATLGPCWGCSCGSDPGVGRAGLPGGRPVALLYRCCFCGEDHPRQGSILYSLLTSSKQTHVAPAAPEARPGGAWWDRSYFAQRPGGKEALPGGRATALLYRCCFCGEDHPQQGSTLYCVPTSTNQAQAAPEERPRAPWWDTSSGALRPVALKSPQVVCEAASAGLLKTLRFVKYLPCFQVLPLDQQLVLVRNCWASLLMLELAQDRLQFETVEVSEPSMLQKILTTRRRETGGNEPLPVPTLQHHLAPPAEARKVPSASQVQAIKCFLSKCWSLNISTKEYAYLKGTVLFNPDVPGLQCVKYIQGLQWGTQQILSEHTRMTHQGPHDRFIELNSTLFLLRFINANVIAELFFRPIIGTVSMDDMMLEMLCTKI
# Protein Wnt-3a = Protein Wnt-3a (Mus musculus, UniProt P27467); assay: Wnt3a-driven reporter signaling inhibition, dose response, selectivity assay for Gli-SUFU antagonist project, Wnt-LIGHT cells, luminescence (AID 651570); assay type: functional; settings: read-out: IC50_Mean;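 note: Wnt-LIGHT reporter cells stimulated with conditioned medium from Wnt3a-producing cells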
# Sequence of Protein Wnt-3a (P27467 whole entry): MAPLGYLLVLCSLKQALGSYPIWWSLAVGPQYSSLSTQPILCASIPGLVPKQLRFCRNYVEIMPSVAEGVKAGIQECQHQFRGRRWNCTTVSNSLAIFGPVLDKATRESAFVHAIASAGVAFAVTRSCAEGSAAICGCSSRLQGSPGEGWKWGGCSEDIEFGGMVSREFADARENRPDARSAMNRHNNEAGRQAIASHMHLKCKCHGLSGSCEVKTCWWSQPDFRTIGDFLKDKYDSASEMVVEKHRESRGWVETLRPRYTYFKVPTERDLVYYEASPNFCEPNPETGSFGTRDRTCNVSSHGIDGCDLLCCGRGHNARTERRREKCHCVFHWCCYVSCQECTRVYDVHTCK
smiles,measurement,setting,value
CCOc1ccc(NC(=O)Cc2cccc3ccccc23)c([N+](=O)[O-])c1,IC50,[1],> 67.5 µM (inactive)
CC(=O)Nc1cc(-c2ccc(F)cc2)cn2c(-c3ccc(F)c(Cl)c3)cnc12,EC50,Melanocortin receptor 4,> 89.2 µM (inactive)
CC(C)N1C[C@H](C)[C@@H](CN(C)Cc2ccc(Cl)cc2)Oc2c(cccc2-c2nnn(-c3ccncc3)n2)C1=O,AC50,[2],0.12 µM (active)
Cn1nccc1C(=O)NC1CCCc2c1cnn2-c1ccc(C(C)(C)C)cc1 (centres undefined),IC50,Galanin receptor type 3,0.143 µM (active)
same,IC50,Tumor necrosis factor,0.2 µM (active)
same,IC50,HEK293 [3],16.4 µM (active)
same,AC50,INS1,1.62 µM (active)
same,EC50,cells,> 29.9 µM (inactive)
same,IC50,[4],0.232 µM (active)
same,IC50,[5],1.25 µM (active)
COC(=O)c1ccc(COC(=O)C23CC4CC(CC(O)(C4)C2)C3)o1,IC50,[6],17.4 µM (inactive)
C[C@@H]1CN([C@H](C)CO)C(=O)c2cc(NC(=O)Nc3ccccc3)ccc2O[C@@H](C)CCCCO[C@@H]1CN(C)Cc1ccc(C(F)(F)F)cc1,AC50,[7],61.8 µM (active)
same,AC50,[8],28.6 µM (active)
same,AC50,[9],51.4 µM (active)
same,AC50,Paired box protein Pax-8,6.35 µM (active)
N#C/C(=N\Nc1ccc(Cl)cc1)C(=N)N1CCCCCC1,EC50,[10],> 67.5 µM (inactive)
same,IC50,HEK293 [11],> 0.833 µM (active)
same,IC50,[12],> 67.5 µM (inactive)
CCCn1c2c(c(=N)c3c1CCC3)CCCC2,IC50,Protein Wnt-3a,37 µM (inactive)

# Reference: ChEMBL document CHEMBL1201862, “PubChem BioAssay data set” (2004)
